Consider 3 compounds from paper PMC8745178, “Methyl 2-Halo-4-Substituted-5-Sulfamoyl-Benzoates as High Affinity and Selective Inhibitors of Carbonic Anhydrase IX” (International Journal of Molecular Sciences, 2021).

A value given as a limit tells only on which side of the number the result lay.

Series [1] concerns the target CAI (Homo sapiens, UniProt P00915). Put plainly: fluorescent thermal shift assay (FTSA), CAI. Type of series: binding. The conditions noted are these: 37 °C; for ΔGintr CAI: converted from Kd_intr, independent of pH; for ΔGobs CAI: converted from Kd_obs, pH 7.0, FTSA.
For series [2], the target named is CAII (Homo sapiens, UniProt P00918). Put plainly: fluorescent thermal shift assay (FTSA), CAII. Type of series: binding. The conditions noted are these: 37 °C; for ΔGintr CAII: converted from Kd_intr, independent of pH; for ΔGobs CAII: converted from Kd_obs, pH 7.0, FTSA.
For series [3], the target named is CAIII (Homo sapiens, UniProt P07451). Kind of series: fluorescent thermal shift assay (FTSA), CAIII. In kind it is binding. The conditions noted are these: 37 °C; for ΔGintr CAIII: converted from Kd_intr, independent of pH; for ΔGobs CAIII: converted from Kd_obs, pH 7.0, FTSA.
Series [4] deals with CAVA (Homo sapiens, UniProt P35218). Kind of series: fluorescent thermal shift assay (FTSA), CAVA. To be noted: 37 °C; for ΔGintr CAVA: converted from Kd_intr, independent of pH; for ΔGobs CAVA: converted from Kd_obs, pH 7.0, FTSA. Type of series: binding.
In series [5] the target is CAVB (Homo sapiens, UniProt Q9Y2D0). Kind of series: fluorescent thermal shift assay (FTSA), CAVB. Type of series: binding. The conditions noted are these: 37 °C; for ΔGintr CAVB: converted from Kd_intr, independent of pH; for ΔGobs CAVB: converted from Kd_obs, pH 7.0, FTSA.
Series [6] addresses CAVI (Homo sapiens, UniProt P23280). Put plainly: fluorescent thermal shift assay (FTSA), CAVI. The conditions noted are these: 37 °C; for ΔGintr CAVI: converted from Kd_intr, independent of pH; for ΔGobs CAVI: converted from Kd_obs, pH 7.0, FTSA. In kind it is binding.
In series [7] the target is CAVII (Homo sapiens, UniProt P43166). Put plainly: fluorescent thermal shift assay (FTSA), CAVII. In kind it is binding. To be noted: 37 °C; for ΔGintr CAVII: converted from Kd_intr, independent of pH; for ΔGobs CAVII: converted from Kd_obs, pH 7.0, FTSA.
For series [8], the target named is CAIX (Homo sapiens, UniProt Q16790). Kind of series: fluorescent thermal shift assay (FTSA), CAIX. The conditions noted are these: for ΔGobs CAIX: pH 7. In kind it is binding.
For series [9], the target named is CAXIII (Homo sapiens, UniProt Q8N1Q1). Kind of series: fluorescent thermal shift assay (FTSA), CAXIII. Type of series: binding. The conditions noted are these: 37 °C; for ΔGintr CAXIII: converted from Kd_intr, independent of pH; for ΔGobs CAXIII: converted from Kd_obs, pH 7.0, FTSA.
The target in series [10] is CAXIV (Homo sapiens, UniProt Q9ULX7). Put plainly: fluorescent thermal shift assay (FTSA), CAXIV. Type of series: binding. To be noted: 37 °C; for ΔGintr CAXIV: converted from Kd_intr, independent of pH; for ΔGobs CAXIV: converted from Kd_obs, pH 7.0, FTSA.
Series [11] is described as follows: determination of pKa of the sulfonamide group by UV-VIS spectra at various pH. In kind it is physicochemical. The conditions noted are these: for f RSO2NH-, fraction of deprotonated sulfonamide: at pH 7.0, calculated from pKa; for pKa: calculated from spectra at various pH, 37 °C.

Usually pKa stands for the negative logarithm of the acid dissociation constant.

Sequence of CAVA (P35218 39-305): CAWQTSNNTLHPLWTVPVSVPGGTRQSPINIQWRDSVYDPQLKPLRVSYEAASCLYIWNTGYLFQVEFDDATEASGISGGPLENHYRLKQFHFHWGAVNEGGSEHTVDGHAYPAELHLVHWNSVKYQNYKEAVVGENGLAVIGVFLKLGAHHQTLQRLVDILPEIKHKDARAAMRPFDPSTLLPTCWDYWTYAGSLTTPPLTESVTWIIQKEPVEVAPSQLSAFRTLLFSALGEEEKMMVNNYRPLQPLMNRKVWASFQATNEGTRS
Sequence of CAXIII (Q8N1Q1 whole entry): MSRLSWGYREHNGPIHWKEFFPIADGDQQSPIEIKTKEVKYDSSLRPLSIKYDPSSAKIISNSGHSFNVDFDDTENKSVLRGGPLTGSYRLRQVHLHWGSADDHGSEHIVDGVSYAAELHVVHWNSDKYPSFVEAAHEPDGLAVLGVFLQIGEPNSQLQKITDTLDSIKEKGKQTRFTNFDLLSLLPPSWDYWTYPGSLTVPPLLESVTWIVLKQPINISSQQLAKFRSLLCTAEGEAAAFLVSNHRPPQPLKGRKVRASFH
Sequence of CAVB (Q9Y2D0 34-317): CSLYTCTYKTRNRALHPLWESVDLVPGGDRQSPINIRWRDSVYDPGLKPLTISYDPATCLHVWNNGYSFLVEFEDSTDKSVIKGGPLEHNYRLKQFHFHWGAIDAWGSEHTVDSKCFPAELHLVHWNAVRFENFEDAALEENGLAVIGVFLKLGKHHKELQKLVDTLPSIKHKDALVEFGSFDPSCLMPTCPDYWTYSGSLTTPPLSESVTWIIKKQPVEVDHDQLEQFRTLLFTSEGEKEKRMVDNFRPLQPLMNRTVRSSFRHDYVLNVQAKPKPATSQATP
Sequence of CAI (P00915 whole entry): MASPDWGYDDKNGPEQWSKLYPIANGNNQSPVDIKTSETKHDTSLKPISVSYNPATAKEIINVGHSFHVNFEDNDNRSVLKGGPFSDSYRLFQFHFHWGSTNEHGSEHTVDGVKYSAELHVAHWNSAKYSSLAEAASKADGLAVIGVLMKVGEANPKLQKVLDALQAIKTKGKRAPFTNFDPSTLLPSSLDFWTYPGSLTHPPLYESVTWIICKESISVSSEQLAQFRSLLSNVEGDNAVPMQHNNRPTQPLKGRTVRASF
Sequence of CAXIV (Q9ULX7 16-337): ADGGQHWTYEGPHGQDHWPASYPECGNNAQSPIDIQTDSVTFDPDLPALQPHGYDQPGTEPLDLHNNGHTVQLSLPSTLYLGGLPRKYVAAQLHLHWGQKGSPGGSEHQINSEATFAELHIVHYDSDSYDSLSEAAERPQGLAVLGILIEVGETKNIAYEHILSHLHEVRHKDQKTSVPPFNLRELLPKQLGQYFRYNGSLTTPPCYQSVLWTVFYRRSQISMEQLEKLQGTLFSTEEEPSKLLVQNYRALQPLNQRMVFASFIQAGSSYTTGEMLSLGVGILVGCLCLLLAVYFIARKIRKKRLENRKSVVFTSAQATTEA
Sequence of CAVII (P43166 whole entry): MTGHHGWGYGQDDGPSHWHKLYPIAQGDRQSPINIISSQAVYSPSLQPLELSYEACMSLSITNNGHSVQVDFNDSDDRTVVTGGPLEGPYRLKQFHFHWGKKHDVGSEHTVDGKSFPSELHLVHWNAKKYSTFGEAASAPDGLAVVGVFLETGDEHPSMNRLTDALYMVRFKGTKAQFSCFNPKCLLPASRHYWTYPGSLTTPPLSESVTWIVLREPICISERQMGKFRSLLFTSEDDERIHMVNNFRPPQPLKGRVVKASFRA
Sequence of CAVI (P23280 18-308): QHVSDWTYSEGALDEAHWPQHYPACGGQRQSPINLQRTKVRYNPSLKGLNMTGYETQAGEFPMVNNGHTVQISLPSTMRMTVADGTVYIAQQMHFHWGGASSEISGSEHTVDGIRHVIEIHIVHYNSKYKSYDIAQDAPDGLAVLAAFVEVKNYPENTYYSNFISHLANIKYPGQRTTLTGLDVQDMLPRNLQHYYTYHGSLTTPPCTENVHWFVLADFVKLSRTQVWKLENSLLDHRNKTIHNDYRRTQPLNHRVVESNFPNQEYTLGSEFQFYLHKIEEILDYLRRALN
Sequence of CAIII (P07451 whole entry): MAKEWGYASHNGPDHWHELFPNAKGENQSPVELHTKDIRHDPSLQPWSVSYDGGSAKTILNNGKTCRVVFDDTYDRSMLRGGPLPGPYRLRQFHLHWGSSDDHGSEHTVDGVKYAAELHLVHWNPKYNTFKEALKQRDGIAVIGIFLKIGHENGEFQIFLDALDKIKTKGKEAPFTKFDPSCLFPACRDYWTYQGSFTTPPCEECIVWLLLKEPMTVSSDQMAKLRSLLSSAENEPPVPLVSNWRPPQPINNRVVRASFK

On to `COC(=O)c1cc(S(N)(=O)=O)c(SC2CCCCC2)cc1Br` [Compound 4b, Methyl 2-bromo-4-(cyclohexylsulfanyl)-5-sulfamoylbenzoate], for which, in series [1], the “ΔGintr CAI” value is -11.1 kcal/mol and the “ΔGobs CAI” value was -7.34 kcal/mol. Moreover, in [2], the “ΔGintr CAII” value is -13.7 kcal/mol and the “ΔGobs CAII” value is -9.51 kcal/mol. For the same compound, in [3], the “ΔGintr CAIII” value is -10.7 kcal/mol and the “ΔGobs CAIII” value was -6.14 kcal/mol. In [4], the “ΔGintr CAVA” value is at least -9.2 kcal/mol and the “ΔGobs CAVA” value is at least -5.26 kcal/mol. Also, in series [5], the “ΔGintr CAVB” value is -11.9 kcal/mol and the “ΔGobs CAVB” value was -7.77 kcal/mol. Also, in series [6], the “ΔGintr CAVI” value was -14.1 kcal/mol and the “ΔGobs CAVI” value is -8.87 kcal/mol. For the same compound, in series [7], the “ΔGintr CAVII” value was -13.7 kcal/mol and the “ΔGobs CAVII” value was -9.44 kcal/mol. In series [8], the “ΔGintr CAIX” value was -18.5 kcal/mol and the “ΔGobs CAIX” value is -14.1 kcal/mol. Besides, in series [9], the “ΔGintr CAXIII” value is -14.4 kcal/mol and the “ΔGobs CAXIII” value is -10.6 kcal/mol. Further, in series [10], the “ΔGintr CAXIV” value is -15.2 kcal/mol and the “ΔGobs CAXIV” value was -10.9 kcal/mol. In addition, in series [11], the “f RSO2NH-, fraction of deprotonated sulfonamide” value (shortened to “f RSO2NH-, fraction”) was 0.3%.

As for `COC(=O)c1cc(S(N)(=O)=O)c(Cl)cc1S(=O)(=O)CCc1ccccc1` [Compound 9d, Methyl 4-chloro-2-(2-phenylethylsulfonyl)-5-sulfamoylbenzoate], in series [1], the “ΔGintr CAI” value is -11.3 kcal/mol and the “ΔGobs CAI” value was -9.2 kcal/mol. In [2], the “ΔGintr CAII” value is -15 kcal/mol and the “ΔGobs CAII” value is -12.5 kcal/mol. Moreover, in series [3], the “ΔGintr CAIII” value was -11.4 kcal/mol and the “ΔGobs CAIII” value was -8.56 kcal/mol. In addition, in series [4], the “ΔGintr CAVA” value is -11.8 kcal/mol and the “ΔGobs CAVA” value was -9.51 kcal/mol. The “ΔGobs CAVB” value in [5] was -12.7 kcal/mol. Moreover, in series [6], the “ΔGintr CAVI” value was -14.2 kcal/mol and the “ΔGobs CAVI” value was -10.8 kcal/mol. In addition, in series [7], the “ΔGintr CAVII” value was -15.5 kcal/mol and the “ΔGobs CAVII” value was -12.9 kcal/mol. In addition, the “ΔGobs CAIX” value in series [8] is -12.2 kcal/mol. Besides, in [9], the “ΔGintr CAXIII” value was -14.2 kcal/mol and the “ΔGobs CAXIII” value was -12.1 kcal/mol. In series [10], the “ΔGintr CAXIV” value was -15.2 kcal/mol and the “ΔGobs CAXIV” value was -12.6 kcal/mol. Further, in [11], the “f RSO2NH-, fraction” value is given as 3.8% and the pKa is 8.4.

Consider `COC(=O)c1cc(S(N)(=O)=O)c(Br)cc1S(=O)(=O)c1ccccc1` [Compound 10a, Methyl 2-(benzenesulfonyl)-4-bromo-5-sulfamoylbenzoate], for which, in [1], the “ΔGintr CAI” value is -11.3 kcal/mol and the “ΔGobs CAI” value is -9.2 kcal/mol. In [2], the “ΔGintr CAII” value was -14.8 kcal/mol and the “ΔGobs CAII” value was -12.3 kcal/mol. Moreover, in series [5], the “ΔGintr CAVB” value was -14.2 kcal/mol and the “ΔGobs CAVB” value was -11.8 kcal/mol. Also, in series [6], the “ΔGintr CAVI” value was -13.4 kcal/mol and the “ΔGobs CAVI” value was -9.89 kcal/mol. Also, in series [7], the “ΔGintr CAVII” value was -15.6 kcal/mol and the “ΔGobs CAVII” value is -13 kcal/mol. Moreover, in series [8], the “ΔGintr CAIX” value is -62.0 and the “ΔGobs CAIX” value is -12 kcal/mol. Besides, in series [9], the “ΔGintr CAXIII” value is -13.9 kcal/mol and the “ΔGobs CAXIII” value is -11.9 kcal/mol. For the same compound, in series [10], the “ΔGintr CAXIV” value is -14.9 kcal/mol and the “ΔGobs CAXIV” value was -12.3 kcal/mol. Moreover, in series [11], the “f RSO2NH-, fraction” value is listed as 3.8% and the pKa is 8.4.
